Data published in PMC11053489 (Viruses, 2024).
Where two headings read alike, the source gives them in different places.

Tests used:
[1] = rats; cited from earlier work
[2] = system: SARS-CoV-2 (hCoV-19/USA-WA1/2020) in Vero CCL-81 cells; assay: microbe, parasite or virus in culture; assay type: cell-based; settings: for anti-SARS-CoV-2 activity (in words), concentrations up to 100 μM: Vero CCL-81 cells
[3] = 20 mg/kg, once (dog or cat); Cmax × Fun
in vitro [4] = settings: African green monkey
Vero CCL-81 cells [5] = system: Vero CCL-81 cells
[6] = 10 mg/kg (in cats); cited from earlier work
[7] = system: SARS-CoV-2 (hCoV-19/USA-WA1/2020) in Calu-3 cells; assay: microbe, parasite or virus in culture; assay type: cell-based; settings: for EC50: read-out: Calu-3 SARS-CoV-2 EC50; for EC90: read-out: Calu-3 SARS-CoV-2 EC90
CCRF-CEM cells = settings: human
[8] = system: SARS-CoV-2 in Vero E6 cells; settings: read-out: EC50, SARS-CoV-2 infectivity in Vero E6 cells; cited from earlier work
in vitro [9] = settings: human, Caco-2
in vitro [10] = settings: human
[11] = cited from earlier work
Vero E6 cells = settings: read-out: CC50 in Vero E6 cells; cited from earlier work
[12] = system: SARS-CoV-2 (hCoV-19/USA-WA1/2020) in Caco-2 cells; assay: microbe, parasite or virus in culture; settings: Severe acute respiratory syndrome coronavirus 2, Caco-2, 72 h; for EC50: read-out: Caco-2 SARS-CoV-2 EC50; for EC90: read-out: Caco-2 SARS-CoV-2 EC90
SARS-CoV-2 in Vero cells = settings: read-out: EC50, virus replication in Vero cells; cited from earlier work
[13] = system: COVID-19 / SARS-CoV-2 infection; settings: COVID-OUT, cited from earlier work
[14] = in vivo; cited from earlier work
[15] = system: SARS-CoV-2 (hCoV-19/USA-WA1/2020) in Caco-2 cells; settings: Caco-2
[16] = human, in vivo
in vitro [17] = settings: human; remark: listed apart in the source
in vitro [18] = settings: human; remark: listed apart in the source
in vitro [19] = settings: human; remark: listed apart in the source
[20] = remdesivir following IV infusion; cited from earlier work
[21] = monkey, in vivo, po; cited from earlier work
[22] = cynomolgus monkey, in vivo; cited from earlier work
[23] = dog, in vivo; cited from earlier work
[24] = mice and rats; cited from earlier work
[25] = cited from earlier work; remark: listed apart in the source
Vero CCL-81 cells [26] = assay: MTS cytotoxicity assay, Vero CCL-81 cells; settings: up to 100 μM
[27] = Severe acute respiratory syndrome coronavirus 2, Calu-3, 72 h
[28] = Severe acute respiratory syndrome coronavirus 2, Calu-3, MOI 0.01, 72 h, 2% FBS

With `C=CCc1ccc(O)c(-c2cc(CC=C)ccc2O)c1` [Magnolol] as the compound, how does the oral bioavailability [1] read?
Its oral bioavailability is 4%.

Which results are given for `Cc1cc(C2=NO[C@@](c3cc(Cl)c(Cl)c(Cl)c3)(C(F)(F)F)C2)sc1C(=O)NCC(=O)NCC(F)(F)F` [Lotilaner]?
EC50 ([2]; Severe acute respiratory syndrome coronavirus 2, 48 h, read-out: Vero CCL-81 Cells EC50): 1.9 µM; EC90 ([2]; Severe acute respiratory syndrome coronavirus 2, 48 h, read-out: Vero CCL-81 Cells EC90): 4.9 µM; Cmax (μM) {unbound} [3]: 0.007 µM; CC50 (in vitro [4]): 44.3 µM

What does the source list for `CC(C)C[C@H](NC(=O)OCc1ccccc1)C(=O)N[C@@H](CC1CCNC1=O)C(O)S(=O)(=O)O` (stereo partly drawn) [GC376]?
EC50 ([2]; read-out: Vero CCL-81 Cells EC50): 0.2 µM; EC90 ([2]; read-out: Vero CCL-81 Cells EC90): 0.6 µM; CC50 (Vero CCL-81 cells [5]): > 100 µM; Cmax [6]: 1700 nM

Which results are given for `C=CCc1ccc(O)c(-c2ccc(O)c(CC=C)c2)c1` [Honokiol]?
EC50 [7, 27]: 69.2 µM; EC90 [7, 27]: 94 µM; EC50 ([2]; Severe acute respiratory syndrome coronavirus 2, 48 h, read-out: Vero CCL-81 SARS-CoV-2 EC50): 20.1 µM; EC90 ([2]; Severe acute respiratory syndrome coronavirus 2, 48 h, read-out: Vero CCL-81 SARS-CoV-2 EC90): 84 µM; CEM CC50 {Unbound} (CCRF-CEM cells): 28.6 {26.8} μM; EC50 [8]: 13 µM; CC50 (in vitro [9]): 18.4 µM; CC50 (in vitro [4]): 40.4 µM; CC50 (in vitro [10]; CEM CC50, 4 days): 28.6 µM; CC50 (in vitro [10]; CEM CC50 {Unbound}): 26.7 µM; Fun (unbound fraction of drug in plasma) ([11]; Table 1, ref column Refs of Table 1): 0.36; CC50 (Vero E6 cells): 54 µM; EC50 [12]: 9.6 µM; EC90 [12]: 80.4 µM

Which EC50 (SARS-CoV-2 in Vero cells) does the source give for `CC(C)(Oc1ccc(C(=O)c2ccc(Cl)cc2)cc1)C(=O)O` [fenofibric acid] here?
Its EC50 is 7 µM.

Which results are given for `CN(C)C(=N)N=C(N)N` [metformin]?
anti-SARS-CoV-2 activity (in words), concentrations up to 100 μM [2]: inactive; anti-SARS-CoV-2 activity (in words), concentrations up to 100 μM ([2]; listed as Metformin): did not observe an EC50; cytotoxicity (in words), up to 100 μM (Vero CCL-81 cells [5]; African green monkey): did not observe an EC50 or cytotoxicity; absolute reduction in long COVID incidence compared with placebo [13]: 4.1%; reduction of the incidence of long COVID ([13]; outpatient treatment): about 41%; plasma Cmax (bound + unbound) [14]: 10200 nM

What does the source list for `N#C[C@@]1(c2ccc3c(N)ncnn23)O[C@H](CO)[C@@H](O)[C@H]1O` [GS-441524]?
EC50 [7, 28]: 0.3 µM; EC90 [7, 28]: 2.34 µM; EC50 ([2]; Severe acute respiratory syndrome coronavirus 2, Table 1 drugs, MOI 0.1, 48 h, 2% FBS, read-out: Vero CCL-81 SARS-CoV-2 EC50): 0.8 µM; EC90 ([2]; Severe acute respiratory syndrome coronavirus 2, Table 1 drugs, MOI 0.1, 48 h, 2% FBS, read-out: Vero CCL-81 SARS-CoV-2 EC90): 1.4 µM; Caco-2 Unbound Cmax/EC50 [15]: 30; Cmax (μM) {unbound} [16]: 2.41 µM; CC50 at 3 days (in vitro [17]): > 100 µM; CC50 at 3 days (in vitro [9]): > 100 µM; CC50 at 3 days (in vitro [4]): > 100 µM; CC50 at 5 days (in vitro [18]): > 100 µM; CC50 at 4 days (in vitro [10]): > 100 µM; CC50 at 4 days (in vitro [19]): > 100 µM; Fun (unbound fraction of drug in plasma) ([11]; plasma): 0.79; plasma t1/2 [20]: 6 to 7 h; oral bioavailability [21]: < 10%; oral bioavailability [22]: about 3%; oral bioavailability [23]: ~89%; EC50 [12]: 0.08 µM; EC90 [12]: 1.4 µM

With `c1coc(CNc2ncnc3[nH]cnc23)c1` [kinetin, N^6-furfurylaminopurine] as the compound, how does the “antiviral activity in Vero CCL-81 cells (in words)” value ([2]; NAs and nucleoside-base precursors, evaluated up to 20 μM) read?
Its value is “lack of antiviral activity”.

What about the “anti-SARS-CoV-2 activity (in words), concentrations up to 100 μM” value [2] of the same compound?
Its value is “did not inhibit SARS-CoV-2”.

What about the oral bioavailability [24] of the same compound?
Its oral bioavailability is 50%.

What about the “bound to plasma proteins” value [25] of the same compound?
The value was ~ 80%.

What about the “cytotoxicity (in words), up to 100 μM” value (Vero CCL-81 cells [26]) of the same compound?
Its value is “not cytotoxic”.
